Measurements as given in patent publication US9862684B2, “Modulation of K2P channels” (The Regents of the University of California, priority 2013, dated 2018).

Legend:
purified TRAAK channels = biological target: T1, purified TRAAK channels (Homo sapiens, UniProt Q9NYG8); assay: UV crosslinking and labeling of purified TRAAK channel; type: binding; conditions: TRAAK 3 μM, 254 nm UV 30 seconds, streptavidin-HRP detection
T1 sequence (Q9NYG8 1-393): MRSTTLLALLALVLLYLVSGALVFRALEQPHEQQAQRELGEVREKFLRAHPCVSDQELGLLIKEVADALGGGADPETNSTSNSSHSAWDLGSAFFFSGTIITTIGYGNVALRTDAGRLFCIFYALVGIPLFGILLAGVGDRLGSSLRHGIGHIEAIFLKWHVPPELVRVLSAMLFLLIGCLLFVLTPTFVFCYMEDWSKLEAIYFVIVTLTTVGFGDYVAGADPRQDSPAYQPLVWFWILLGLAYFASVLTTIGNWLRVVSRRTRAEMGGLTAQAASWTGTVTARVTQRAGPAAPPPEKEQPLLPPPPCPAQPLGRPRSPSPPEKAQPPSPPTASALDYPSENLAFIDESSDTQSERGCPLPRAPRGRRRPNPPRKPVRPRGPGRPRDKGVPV
Method: FIG. 15 Crosslinking and labeling of TRAAK channel with ML67-151; crosslinking of ML67-151 to purified TRAAK channels (3 μM) following exposure to 254 nm UV light for 30 seconds; left is SDS-PAGE of purified TRAAK, top middle is streptavidin-HRP detection following addition of clickable biotin; bottom middle is Ponceau S staining
Crosslinking of ML67-151 to purified TRAAK channels (3 μM) following exposure to 254 nm UV light for 30 seconds is shown in the top middle blot of FIG. 15, including streptavidin-HRP detection following addition of clickable biotin.

TREK-1 = biological target: T2, TREK-1 (Mus musculus, UniProt P97438); assay: Modulation of TREK-1 by select compounds (agonist activity), Table 3; type: cell-based, Murine; conditions: 50 μM
T2 construct: expressed in transfected cells
T2 sequence (P97438 1-411 isoform P97438-2): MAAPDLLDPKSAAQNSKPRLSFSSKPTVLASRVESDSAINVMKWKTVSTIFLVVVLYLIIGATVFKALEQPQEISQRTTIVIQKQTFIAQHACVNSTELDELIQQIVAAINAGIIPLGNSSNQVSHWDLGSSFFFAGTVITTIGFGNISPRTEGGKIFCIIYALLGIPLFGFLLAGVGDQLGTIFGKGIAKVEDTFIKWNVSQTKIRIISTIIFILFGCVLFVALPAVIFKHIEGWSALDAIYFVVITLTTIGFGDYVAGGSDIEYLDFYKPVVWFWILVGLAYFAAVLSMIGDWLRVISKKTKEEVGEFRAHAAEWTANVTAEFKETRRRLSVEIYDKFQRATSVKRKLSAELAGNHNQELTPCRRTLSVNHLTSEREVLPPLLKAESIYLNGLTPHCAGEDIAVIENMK
Method: Two-electrode voltage clamp recordings were performed from defolliculated stage V-VI Xenopus oocytes 24-48 hours after injection with 0.015-6.0 ng cRNA, using microelectrodes (0.3-3.0 MΩ) filled with 3M KCl. […] Recording solutions (mM): 2K (96 NaCl, 2 KCl, 1.8 CaCl2, 2 MgCl2), 90K (90 KCl, 8 NaCl, 1.8 CaCl2, 2 MgCl2), were buffered 5 mM HEPES pH 7.4. For K2P recordings, currents we elicited by a 1 second long ramp from −150 to +50 mV from a holding potential of −80 mV (2K), or −100 to +50 mV from a holding potential of 0 mV (90K). For KCNQ2 recordings, currents were elicited by a step protocol from −120 to 60 mV, in 20 mV increments, from a holding potential of −80 mV. […] Currents were elicited by a 1 second long ramp from −150 to +50 mV from a holding potential of −80 mV.

For `C#Cc1ccc(S(=O)(=O)NC(=O)CCN2c3ccc(N=[N+]=[N-])cc3C3(CCCCC3)c3cc(N=[N+]=[N-])ccc32)cc1` [ML67-151, 1-(2-azido-10-{2-[(4-ethynylbenzene-sulfonyl)carbamoyl]ethyl}-10H-spiro[acridine-9,1′-cyclohexane]-7-yl)triaza-1,2-dien-2-ium], the “crosslinking and labeling of TRAAK channel (in words)” value (purified TRAAK channels) was “capable of crosslinking and labeling TRAAK channel” and the “% activity at 50 μM” value (TREK-1) was “About 50% activity of ML67-33 at 50 μM”.
